Laboratory results as given in patent US20230310441A1, “TREATMENT FOR SCHIZOPHRENIA” (TAKEDA PHARMACEUTICAL COMPANY, priority 2020, published 2023).
Read-outs that look alike come from different tables or passages of the source.

How the values were obtained:
[1] = Separate single dose oral study: half-life in dogs; details: dog, in vivo; single dose oral administration of 5-15 mg/kg
Excerpt: The mean t1/2z for Compound (I) reflects the prolonged half-life of Compound (I) in humans. […] In that study, the mean human half-life of Compound (I) (approximately 11 days) was substantially higher than the 2-4 hr mean half-life observed in rats and dogs.

[2] = Brief Assessment of Cognition in Schizophrenia (BACS) composite score; assay type: in vivo, human
Experimental: (§1) On Day 1 of each treatment period, following study drug administration, and commencing at approximately 2 h post-dose, subjects underwent PD tests for a total of approximately 4 h. Blood samples were collected at defined times after dosing to assess the PK of Compound (I). After the last PK collection at 6 h post-dose, subjects left the clinic. On Day 14 of each Treatment Period, subjects took the second set of PD tests along with a single time point PK collection. Samples for PK were also collected on Day 49 and at the final visit of the second treatment period. PD testing were performed in 3 blocks, separated by 2 breaks. The first block comprised the Grip Effort Task, the Progressive Ratio Test, and the Brief Assessment of Cognition in Schizophrenia (BACS). The BACS is a reliable and sensitive test battery specifically designed to efficiently assesses important cognitive deficits in patients with schizophrenia; accordingly, the BACS is suited for repeated testing in a clinical trial setting (Keefe et al., 2004). […] The following domains of cognitive function found to be consistently impaired in schizophrenia were assessed in this study: verbal memory; working memory; motor function; attention and processing speed; verbal fluency; and executive function. A composite score was calculated from each of the subset scores and used as a single endpoint for the assessment.
The BACS consisted of items across 6 subtests: Verbal Memory, Digit Sequencing, Token Motor, Verbal Fluency, Symbol Coding, and Tower of London.
The observed BOLD signal was summarized (N, mean, median, SD, minimum, and maximum) by treatment (Compound (I) (overall and by dose) and placebo) and time. The BACS composite score was summarized for baseline, post-dose, and change from baseline by treatment, dose, and time.
Each of the primary PD measures was analyzed using a Bayesian normal linear model with effects for sequence, period, treatment, time (as a categorical variable), the treatment-by-time interaction, subject within treatment sequence, and baseline (for BACS only). For the BOLD fMRI, the observed value was the response variable in the model. For the BACS, the observed and the change from baseline were modeled separately. Missing values were not imputed and were not included in the model under a missing at random assumption. A diffuse normal distribution with mean zero and variance 106 was used as a prior for the regression coefficients and a diffuse inverse gamma with shape and scale parameters of 0.01 for the residual variance. […]

[3] = Phase 2 crossover study: safety in subjects with stable schizophrenia; assay type: in vivo, human
Excerpt: The safety analysis set consisted of all subjects who were enrolled and received at least 1 dose of study drug. Safety measurements included adverse events, physical examinations, vital signs, clinical laboratory evaluations, ECGs, and C-SSRS.

[4] = Phase 2 crossover study: plasma pharmacokinetics in schizophrenia subjects; assay type: in vivo, human; details: for AUC(0-inf) / Cmax / Tmax: human, plasma, schizophrenia subjects; for Tmax: read-out: median tmax
Experimental: as §1
Dosing involved participants drinking a single bottle of oral suspension, containing either Compound (I) (40 or 160 mg Compound (I) mixed with 70 mL Tween/MC vehicle) or placebo (70 mL of Tween/MC vehicle) (Table 11). Participants were instructed to drink the full contents of the bottle, which was then rinsed twice with 35 mL water, which participants also drank. The initial dose level selected was 40 mg, which was adjusted to 160 mg following a planned interim analysis of available PK and safety data from emerging first-in-human cohort data.
The PK set consisted of all subjects who received at least 1 dose of study drug and had at least 1 measurable plasma concentration.
Compound (I) plasma concentrations were tabulated and summarized by descriptive statistics at each scheduled time point (mean, median, SD, percent coefficient of variation, minimum, and maximum) for each treatment and dose level. Individual subject plasma concentration data were listed.
The plasma PK parameters of Compound (I) were determined from the concentration-time profiles for all evaluable subjects. Actual sampling times, rather than scheduled sampling times, were used in all computations involving sampling times. The following PK parameters were calculated using non-compartmental analysis using Phoenix WinNonLin (version 6.3 or higher): area under the plasma concentration-time curve from time 0 to time t, area under the plasma concentration-time curve from time 0 to infinity (AUC∞), maximum observed plasma concentration (Cmax), time of first occurrence of Cmax (tmax), and terminal disposition phase half-life.

With `C[C@H](NC(=O)Cn1nnc2ccccc2c1=O)c1ccc(OC(F)(F)F)cc1` [Compound (I), (S)-2-(4-oxobenzo[d][1,2,3]triazin-3(4H)-yl)-N-(1-(4-(trifluoromethoxy)phenyl)ethyl)acetamide] the half-life [1] was 2 to 4 h, the “posterior mean (SD) for the difference to placebo, BACS composite score” value (shortened to “posterior mean (SD) for the difference”) ([2]; Day 14, 40 mg) was −0.23 (2.95) and the “posterior mean (SD) for the difference” value ([2]; Day 14, 160 mg) was −0.84 (1.87). The “posterior mean (SD) for the difference” value ([2]; Day 14, overall) was −0.61 (1.50), the BACS performance ([2]; phase 2) was “not seen to be affected” and the “deaths or serious adverse events” value ([3]; phase 2) was “no deaths or serious adverse events”. The “discontinuation of study medication due to TEAEs” value ([3]; phase 2) was “No subjects discontinued study medication due to TEAEs”, the safety and tolerability ([3]; phase 2, single doses 40 or 160 mg, add-on to antipsychotics) was “safe and well-tolerated” and the “increase of mean AUC∞ for a 4-fold increase in dose” value ([4]; 40 to 160 mg) was 3.5 fold. For the same molecule, the “increase of mean Cmax for a 4-fold increase in dose” value ([4]; 40 to 160 mg) was 2.8 fold, the AUC(0-inf) ([4]; single oral dose 40 mg) was 217 µg·h/mL and the Cmax ([4]; single oral dose 40 mg) was 549 ng/mL. It also gave a Tmax ([4]; single oral dose 40 mg) of 1.83 h, an AUC(0-inf) ([4]; single oral dose 160 mg) of 763 µg·h/mL and a Cmax ([4]; single oral dose 160 mg) of 1520 ng/mL. The Tmax ([4]; single oral dose 160 mg) was 1.92 h.
